Experiments:
[1] = Effect of H2O2 on the fluorescence of Nile red; type: physicochemical; conditions: 72 h incubation with 1 mM hydrogen peroxide
Protocol: The fluorescence of the dye was quenched in aqueous environments, enabling use as a model compound to indicate small molecule release from the hydrophobic nanoparticle interior. Prior to the evaluation of controlled release from our materials, the stability of Nile Red fluorescence in hydrogen peroxide was tested to ensure that the fluorescence quenching observed is not a result of Nile Red exposure to hydrogen peroxide.
Nile red solutions of three different concentrations in acetone were prepared (10, 40, 160 ng/mL). Polymer 1 was dissolved in the Nile red solutions (polymer concentration in all Nile red solutions were constant at 125 μg/mL). Hydrogen peroxide was added to these solutions (concentration in Nile red solutions was constant at 1 mM). Changes in Nile red fluorescence were monitored over a 72 h period using the same instrument settings as reported previously. These experiments were run in duplicate.

[2] = cited from earlier work
dMPRO cells = assay: Extracellular hydrogen peroxide produced by neutrophils; type: cell-based, mouse; conditions: 1.6×10^6 dMPRO cells, after 6 h of PMA treatment
Protocol: Activated neutrophils generate high ROS. Extracellular hydrogen peroxide produced by neutrophils (differentiated mouse promyleocytes or dMPRO cells) with and without PMA (phorbol 12 myristate 13 acetate) stimulation was measured.
After 6 h of PMA treatment, 1.6×10^6 dMPRO cells produced 6.5 μM H2O2, while untreated cells produced 4.5 μM H2O2. These extracellular levels of H2O2 were much lower than the levels previously seen for Polymer 2, however the concentration of H2O2 inside neutrophil granules appear to be much higher. Fluorescein diacetate (FDA), a non-fluorescent molecule which is cleaved to fluorescein (Ex490/Em520) by cellular esterases, was chosen for the release assay.

Raw264.7 macrophages = assay: ApoTox-Glo assay of viability, cytotoxicity and apoptosis; conditions: staurosporine 5 μM for 5 h; Triton X-100 0.1% for 15 min
Protocol: In addition, this assay also measures caspase 3/7 activity as a readout for apoptosis (see, FIGS. 7A-7D). […] Staurosporine and 0.1% Triton-X 100 were used as positive controls for induction of apoptosis and cell death, respectively.
Raw264.7 cells were seeded on a 96-well plate at a density of 15000 cells per well. […] The particles were incubated for 5, 24 and 48 h.
Apoptosis (positive control) was induced by addition of staurosporine (5 μM final concentration), followed by incubation for at 37° C. for 5 h. Cytotoxicity (positive control) was induced by addition of triton X-100 (0.1% final concentration), followed by incubation at 37° C. for 15 min. Viability, cytotoxicity and apoptosis were measured using ApoTox-Glo™ assay (Promega) as per manufacturer's protocol. Datasets for each concentration and controls were collected in quadruplicates.

CCN(CC)c1ccc2nc3c4ccccc4c(=O)cc-3oc2c1 [Nile red]
change of Nile Red fluorescence [1]: did not change significantly
solubility in aqueous media [2]: < 1 µg/mL

CCCCCCCCCCCCCC(=O)O[C@@H]1[C@@H](C)[C@@]2(O)[C@@H](C=C(CO)C[C@]3(O)C(=O)C(C)=C[C@@H]23)[C@@H]2C(C)(C)[C@]12OC(C)=O [PMA, phorbol 12 myristate 13 acetate]
extracellular H2O2 produced (dMPRO cells): 6.5 µM

CN[C@@H]1C[C@H]2O[C@@](C)([C@@H]1OC)n1c3ccccc3c3c4c(c5c6ccccc6n2c5c31)C(=O)NC4 [staurosporine]
apoptosis and cell viability, positive controls (Raw264.7 macrophages): apoptosis and loss of cell viability was observed

Triton X-100
apoptosis and cell viability, positive controls (Raw264.7 macrophages): apoptosis and loss of cell viability was observed

— patent US9333264B2, “Biocompatible polymeric nanoparticles degrade and release cargo in response to biologically relevant levels of hydrogen peroxide” (The Regents of the University of California, priority 2013, dated 2016)
